From the supplement of paper PMC13207355
Structures can show the parent of a compound that is named as a salt.

Key:
Settings in all cases: exposure time: 72 h
E13 [1] = patient-derived glioblastoma stem cells of classical subtype; assay: phenotypic distance (Euclidean, principal components) from DMSO controls (arbitrary units); higher = stronger morphological change
E34 [2] = patient-derived glioblastoma stem cells of proneural subtype; assay: as above
E31 [3] = patient-derived glioblastoma stem cells of proneural subtype; assay: as above
FT3469 [4] = normal neural stem cell line; assay: as above
E28 [5] = patient-derived glioblastoma stem cells of classical subtype; assay: as above
E57 [6] = patient-derived glioblastoma stem cells of mesenchymal subtype; assay: as above
E21 [7] = patient-derived glioblastoma stem cells of mesenchymal subtype; assay: as above
E13 [8] = assay: surviving fraction (nuclei count normalised to DMSO); higher = more cells surviving (less toxic)
E34 [9] = assay: as above
E31 [10] = assay: as above
FT3469 [11] = assay: as above
E28 [12] = assay: as above
E57 [13] = assay: as above
E21 [14] = assay: as above
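For phenotypic distance (Euclidean, principal components) from DMSO controls in this document: cell Painting imaging in 384-well plates, CellProfiler features reduced to at least 20 principal components, Euclidean distance versus same-plate DMSO vehicle wells (0.1% v/v), median over six images per well.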
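For surviving fraction (nuclei count normalised to DMSO) in this document: nuclei counted by high-content imaging of Hoechst-stained cells in laminin-coated 384-well plates, relative to 0.1% DMSO vehicle wells, with staurosporine as cell-death control.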

SMILES: OCCN1CCN(CCCN2c3ccccc3Sc3ccc(C(F)(F)F)cc32)CC1 [Fluphenazine dihydrochloride]
- phenotypic distance (E13 [1]; 4.1 nM): 0.431
- phenotypic distance (E13 [1]; 12.3 nM): 0.337
- phenotypic distance (E13 [1]; 37 nM): 0.907
- phenotypic distance (E13 [1]; 111.1 nM): 0.69
- phenotypic distance (E13 [1]; 333.3 nM): 1.57
- phenotypic distance (E13 [1]; 1000 nM): 1.8
- phenotypic distance (E13 [1]; 3000 nM): 2.01
- phenotypic distance (E34 [2]; 4.1 nM): 0.947
- phenotypic distance (E34 [2]; 12.3 nM): 0.375
- phenotypic distance (E34 [2]; 37 nM): 0.734
- phenotypic distance (E34 [2]; 111.1 nM): 0.93
- phenotypic distance (E34 [2]; 333.3 nM): 1.15
- phenotypic distance (E34 [2]; 1000 nM): 0.764
- phenotypic distance (E34 [2]; 3000 nM): 1.17
- phenotypic distance (E31 [3]; 4.1 nM): 0.66
- phenotypic distance (E31 [3]; 12.3 nM): 0.671
- phenotypic distance (E31 [3]; 37 nM): 0.803
- phenotypic distance (E31 [3]; 111.1 nM): 1.17
- phenotypic distance (E31 [3]; 333.3 nM): 1.95
- phenotypic distance (E31 [3]; 1000 nM): 2.4
- phenotypic distance (E31 [3]; 3000 nM): 2.16
- phenotypic distance (FT3469 [4]; 4.1 nM): 0.785
- phenotypic distance (FT3469 [4]; 12.3 nM): 0.668
- phenotypic distance (FT3469 [4]; 37 nM): 0.632
- phenotypic distance (FT3469 [4]; 111.1 nM): 0.808
- phenotypic distance (FT3469 [4]; 333.3 nM): 0.87
- phenotypic distance (FT3469 [4]; 1000 nM): 1.41
- phenotypic distance (FT3469 [4]; 3000 nM): 1.36
- phenotypic distance (E28 [5]; 4.1 nM): 0.832
- phenotypic distance (E28 [5]; 12.3 nM): 0.622
- phenotypic distance (E28 [5]; 37 nM): 0.706
- phenotypic distance (E28 [5]; 111.1 nM): 0.624
- phenotypic distance (E28 [5]; 333.3 nM): 0.662
- phenotypic distance (E28 [5]; 1000 nM): 0.755
- phenotypic distance (E28 [5]; 3000 nM): 0.877
- phenotypic distance (E57 [6]; 4.1 nM): 0.619
- phenotypic distance (E57 [6]; 12.3 nM): 0.504
- phenotypic distance (E57 [6]; 37 nM): 0.711
- phenotypic distance (E57 [6]; 111.1 nM): 0.787
- phenotypic distance (E57 [6]; 333.3 nM): 0.901
- phenotypic distance (E57 [6]; 1000 nM): 0.778
- phenotypic distance (E57 [6]; 3000 nM): 1.6
- phenotypic distance (E21 [7]; 4.1 nM): 0.339
- phenotypic distance (E21 [7]; 12.3 nM): 0.421
- phenotypic distance (E21 [7]; 37 nM): 0.601
- phenotypic distance (E21 [7]; 111.1 nM): 0.795
- phenotypic distance (E21 [7]; 333.3 nM): 0.745
- phenotypic distance (E21 [7]; 1000 nM): 0.728
- phenotypic distance (E21 [7]; 3000 nM): 1.26
- surviving fraction (E13 [8]; 4.1 nM): 0.959
- surviving fraction (E13 [8]; 12.3 nM): 1.02
- surviving fraction (E13 [8]; 37 nM): 1
- surviving fraction (E13 [8]; 111.1 nM): 1
- surviving fraction (E13 [8]; 333.3 nM): 0.966
- surviving fraction (E13 [8]; 1000 nM): 0.816
- surviving fraction (E13 [8]; 3000 nM): 0.804
- surviving fraction (E34 [9]; 4.1 nM): 0.901
- surviving fraction (E34 [9]; 12.3 nM): 0.986
- surviving fraction (E34 [9]; 37 nM): 0.911
- surviving fraction (E34 [9]; 111.1 nM): 0.993
- surviving fraction (E34 [9]; 333.3 nM): 1.2
- surviving fraction (E34 [9]; 1000 nM): 1.05
- surviving fraction (E34 [9]; 3000 nM): 1.06
- surviving fraction (E31 [10]; 4.1 nM): 1.01
- surviving fraction (E31 [10]; 12.3 nM): 1.18
- surviving fraction (E31 [10]; 37 nM): 1.02
- surviving fraction (E31 [10]; 111.1 nM): 0.932
- surviving fraction (E31 [10]; 333.3 nM): 1.09
- surviving fraction (E31 [10]; 1000 nM): 1.22
- surviving fraction (E31 [10]; 3000 nM): 1.13
- surviving fraction (FT3469 [11]; 4.1 nM): 0.838
- surviving fraction (FT3469 [11]; 12.3 nM): 1.09
- surviving fraction (FT3469 [11]; 37 nM): 0.931
- surviving fraction (FT3469 [11]; 111.1 nM): 1
- surviving fraction (FT3469 [11]; 333.3 nM): 1.04
- surviving fraction (FT3469 [11]; 1000 nM): 0.894
- surviving fraction (FT3469 [11]; 3000 nM): 0.84
- surviving fraction (E28 [12]; 4.1 nM): 1.13
- surviving fraction (E28 [12]; 12.3 nM): 0.846
- surviving fraction (E28 [12]; 37 nM): 1.1
- surviving fraction (E28 [12]; 111.1 nM): 1.04
- surviving fraction (E28 [12]; 333.3 nM): 0.899
- surviving fraction (E28 [12]; 1000 nM): 0.923
- surviving fraction (E28 [12]; 3000 nM): 1.05
- surviving fraction (E57 [13]; 4.1 nM): 1.02
- surviving fraction (E57 [13]; 12.3 nM): 1.03
- surviving fraction (E57 [13]; 37 nM): 1.03
- surviving fraction (E57 [13]; 111.1 nM): 1
- surviving fraction (E57 [13]; 333.3 nM): 1.12
- surviving fraction (E57 [13]; 1000 nM): 1.02
- surviving fraction (E57 [13]; 3000 nM): 1.15
- surviving fraction (E21 [14]; 4.1 nM): 0.932
- surviving fraction (E21 [14]; 12.3 nM): 0.986
- surviving fraction (E21 [14]; 37 nM): 1.08
- surviving fraction (E21 [14]; 111.1 nM): 0.96
- surviving fraction (E21 [14]; 333.3 nM): 1.01
- surviving fraction (E21 [14]; 1000 nM): 0.989
- surviving fraction (E21 [14]; 3000 nM): 0.938

SMILES: Nc1nc(=O)c2nc(CNc3ccc(C(=O)N[C@@H](CCC(=O)O)C(=O)O)cc3)cnc2[nH]1 [Folic acid]
- phenotypic distance (E13 [1]; 4.1 nM): 0.778
- phenotypic distance (E13 [1]; 12.3 nM): 0.355
- phenotypic distance (E13 [1]; 37 nM): 0.501
- phenotypic distance (E13 [1]; 111.1 nM): 0.396
- phenotypic distance (E13 [1]; 333.3 nM): 0.695
- phenotypic distance (E13 [1]; 1000 nM): 0.593
- phenotypic distance (E13 [1]; 3000 nM): 0.805
- phenotypic distance (E34 [2]; 4.1 nM): 1.01
- phenotypic distance (E34 [2]; 12.3 nM): 0.395
- phenotypic distance (E34 [2]; 37 nM): 0.531
- phenotypic distance (E34 [2]; 111.1 nM): 0.763
- phenotypic distance (E34 [2]; 333.3 nM): 0.579
- phenotypic distance (E34 [2]; 1000 nM): 0.38
- phenotypic distance (E34 [2]; 3000 nM): 0.822
- phenotypic distance (E31 [3]; 4.1 nM): 0.277
- phenotypic distance (E31 [3]; 12.3 nM): 0.448
- phenotypic distance (E31 [3]; 37 nM): 0.256
- phenotypic distance (E31 [3]; 111.1 nM): 0.408
- phenotypic distance (E31 [3]; 333.3 nM): 0.439
- phenotypic distance (E31 [3]; 1000 nM): 0.452
- phenotypic distance (E31 [3]; 3000 nM): 0.335
- phenotypic distance (FT3469 [4]; 4.1 nM): 0.931
- phenotypic distance (FT3469 [4]; 12.3 nM): 0.68
- phenotypic distance (FT3469 [4]; 37 nM): 0.676
- phenotypic distance (FT3469 [4]; 111.1 nM): 0.509
- phenotypic distance (FT3469 [4]; 333.3 nM): 0.439
- phenotypic distance (FT3469 [4]; 1000 nM): 1.06
- phenotypic distance (FT3469 [4]; 3000 nM): 0.675
- phenotypic distance (E28 [5]; 4.1 nM): 0.522
- phenotypic distance (E28 [5]; 12.3 nM): 0.383
- phenotypic distance (E28 [5]; 37 nM): 0.987
- phenotypic distance (E28 [5]; 111.1 nM): 0.572
- phenotypic distance (E28 [5]; 333.3 nM): 0.378
- phenotypic distance (E28 [5]; 1000 nM): 0.745
- phenotypic distance (E28 [5]; 3000 nM): 0.583
- phenotypic distance (E57 [6]; 4.1 nM): 0.364
- phenotypic distance (E57 [6]; 12.3 nM): 0.555
- phenotypic distance (E57 [6]; 37 nM): 0.5
- phenotypic distance (E57 [6]; 111.1 nM): 0.927
- phenotypic distance (E57 [6]; 333.3 nM): 0.637
- phenotypic distance (E57 [6]; 1000 nM): 0.333
- phenotypic distance (E57 [6]; 3000 nM): 0.748
- phenotypic distance (E21 [7]; 4.1 nM): 0.612
- phenotypic distance (E21 [7]; 12.3 nM): 0.186
- phenotypic distance (E21 [7]; 37 nM): 0.499
- phenotypic distance (E21 [7]; 111.1 nM): 0.624
- phenotypic distance (E21 [7]; 333.3 nM): 0.464
- phenotypic distance (E21 [7]; 1000 nM): 0.432
- phenotypic distance (E21 [7]; 3000 nM): 0.539
- surviving fraction (E13 [8]; 4.1 nM): 0.982
- surviving fraction (E13 [8]; 12.3 nM): 1.06
- surviving fraction (E13 [8]; 37 nM): 0.964
- surviving fraction (E13 [8]; 111.1 nM): 1
- surviving fraction (E13 [8]; 333.3 nM): 1.17
- surviving fraction (E13 [8]; 1000 nM): 1.02
- surviving fraction (E13 [8]; 3000 nM): 1.21
- surviving fraction (E34 [9]; 4.1 nM): 1.15
- surviving fraction (E34 [9]; 12.3 nM): 1.03
- surviving fraction (E34 [9]; 37 nM): 0.979
- surviving fraction (E34 [9]; 111.1 nM): 1.12
- surviving fraction (E34 [9]; 333.3 nM): 0.974
- surviving fraction (E34 [9]; 1000 nM): 1.04
- surviving fraction (E34 [9]; 3000 nM): 0.925
- surviving fraction (E31 [10]; 4.1 nM): 1.13
- surviving fraction (E31 [10]; 12.3 nM): 0.968
- surviving fraction (E31 [10]; 37 nM): 0.961
- surviving fraction (E31 [10]; 111.1 nM): 0.969
- surviving fraction (E31 [10]; 333.3 nM): 1.03
- surviving fraction (E31 [10]; 1000 nM): 1.14
- surviving fraction (E31 [10]; 3000 nM): 0.872
- surviving fraction (FT3469 [11]; 4.1 nM): 1.16
- surviving fraction (FT3469 [11]; 12.3 nM): 1.03
- surviving fraction (FT3469 [11]; 37 nM): 1.12
- surviving fraction (FT3469 [11]; 111.1 nM): 1.01
- surviving fraction (FT3469 [11]; 333.3 nM): 1.05
- surviving fraction (FT3469 [11]; 1000 nM): 1.1
- surviving fraction (FT3469 [11]; 3000 nM): 0.939
- surviving fraction (E28 [12]; 4.1 nM): 0.971
- surviving fraction (E28 [12]; 12.3 nM): 1.05
- surviving fraction (E28 [12]; 37 nM): 1.11
- surviving fraction (E28 [12]; 111.1 nM): 0.954
- surviving fraction (E28 [12]; 333.3 nM): 1.01
- surviving fraction (E28 [12]; 1000 nM): 1.31
- surviving fraction (E28 [12]; 3000 nM): 0.925
- surviving fraction (E57 [13]; 4.1 nM): 1.03
- surviving fraction (E57 [13]; 12.3 nM): 1.03
- surviving fraction (E57 [13]; 37 nM): 0.994
- surviving fraction (E57 [13]; 111.1 nM): 0.948
- surviving fraction (E57 [13]; 333.3 nM): 1.01
- surviving fraction (E57 [13]; 1000 nM): 1.03
- surviving fraction (E57 [13]; 3000 nM): 0.903
- surviving fraction (E21 [14]; 4.1 nM): 0.915
- surviving fraction (E21 [14]; 12.3 nM): 1.07
- surviving fraction (E21 [14]; 37 nM): 1
- surviving fraction (E21 [14]; 111.1 nM): 1.07
- surviving fraction (E21 [14]; 333.3 nM): 1.01
- surviving fraction (E21 [14]; 1000 nM): 1.07
- surviving fraction (E21 [14]; 3000 nM): 0.972
